The text below walks through data of US10307420B2, “Treating sexual desire disorders with flibanserin” (Sprout Pharmaceuticals, Inc., priority 2001, dated 2019).

One experiment addresses T1, 5-HT1A receptor (Homo sapiens, UniProt P08908).
T1 sequence (P08908 1-422): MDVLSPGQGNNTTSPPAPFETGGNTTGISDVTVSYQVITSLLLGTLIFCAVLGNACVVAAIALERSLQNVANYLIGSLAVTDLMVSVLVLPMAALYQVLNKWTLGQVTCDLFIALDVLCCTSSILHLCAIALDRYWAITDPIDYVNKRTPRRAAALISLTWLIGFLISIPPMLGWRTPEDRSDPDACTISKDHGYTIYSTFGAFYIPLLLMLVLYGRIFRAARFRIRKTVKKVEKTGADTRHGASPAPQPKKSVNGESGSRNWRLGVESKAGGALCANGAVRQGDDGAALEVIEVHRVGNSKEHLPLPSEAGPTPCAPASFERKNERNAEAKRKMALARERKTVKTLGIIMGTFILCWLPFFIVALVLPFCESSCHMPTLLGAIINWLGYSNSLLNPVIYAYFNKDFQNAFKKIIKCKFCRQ
The conditions noted are these: statement in the background, no value; cited from earlier work.

The subject of another experiment is 5HT2-receptor. The conditions noted are these: statement in the background, no value; cited from earlier work.
A short description of experiment [1]: studies of male and female patients suffering from sexual dysfunction. It counts as in vivo, human patients. An excerpt: Accordingly, the instant invention relates to the use of flibanserin, optionally in form of the pharmacologically acceptable acid addition salts thereof for the preparation of a medicament for the treatment of disorders of sexual desire.

On to `O=c1[nH]c2ccccc2n1CCN1CCN(c2cccc(C(F)(F)F)c2)CC1` [Flibanserin, 1-[2-(4-(3-trifluoromethyl-phenyl)piperazin-1-yl)ethyl]-2,3-dihydro-1H-benzimidazol-2-one], for which, at 5-HT1A receptor, the “affinity for the 5-HT1A receptor” value is given as “shows affinity”. In addition, the “affinity for the 5HT2-receptor” value with 5HT2-receptor is “shows affinity”. In experiment [1], the “sexual desire enhancing properties” value was “displays sexual desire enhancing properties”.
